Data as given in the NIST ThermoML archive (doi:10.1021/je0201976).
± gives the expanded uncertainty stated by the source.

Conditions: Liquid; for Critical pressure: Direct measurement; for Critical temperature: Visual observation in an unstirred cell

FC(F)C(F)(F)COC(F)(F)C(F)F [1,1,2,2-tetrafluoro-3-(1,1,2,2-tetrafluoroethoxy)propane]
Conditions | Critical density [kg/m3] | Critical pressure [kPa] | Critical temperature [K] | vapor or sublimation pressure [kPa]
– | 530 ± 2 | 2581 ± 5 | 510.07 ± 0.08 | –
322.65 K | – | – | – | 20.9 ± 1
332.65 K | – | – | – | 31.6 ± 1
342.71 K | – | – | – | 46.8 ± 1
352.73 K | – | – | – | 67.9 ± 1
362.77 K | – | – | – | 95.4 ± 1
372.77 K | – | – | – | 131.3 ± 1.1
382.81 K | – | – | – | 177.3 ± 1.1
402.88 K | – | – | – | 308.1 ± 1.3
412.91 K | – | – | – | 395.4 ± 1.5
422.94 K | – | – | – | 500.2 ± 1.8
432.96 K | – | – | – | 628.3 ± 2.1
442.99 K | – | – | – | 773.9 ± 2.4
453.01 K | – | – | – | 946.9 ± 3
463.24 K | – | – | – | 1151.4 ± 3.6
473.06 K | – | – | – | 1378.5 ± 4.3
481.12 K | – | – | – | 1591 ± 5
491.9 K | – | – | – | 1907.6 ± 6
501.73 K | – | – | – | 2245.2 ± 7
509.65 K | – | – | – | 2552.5 ± 8

CCOC(F)(F)C(F)(F)C(F)(F)C(F)(F)F [1-ethoxy-1,1,2,2,3,3,4,4,4-nonafluorobutane]
Conditions | Critical density [kg/m3] | Critical pressure [kPa] | Critical temperature [K] | vapor or sublimation pressure [kPa]
– | 518 ± 2 | 1976 ± 5 | 482.02 ± 0.11 | –
309.21 K | – | – | – | 22.5 ± 1
332.68 K | – | – | – | 57 ± 1
342.71 K | – | – | – | 80.7 ± 1
347.73 K | – | – | – | 95.4 ± 1
382.82 K | – | – | – | 271.9 ± 1.3
392.84 K | – | – | – | 349.2 ± 1.4
402.87 K | – | – | – | 443.3 ± 1.6
412.66 K | – | – | – | 553.4 ± 1.9
422.65 K | – | – | – | 684.8 ± 2.2
432.89 K | – | – | – | 835.3 ± 2.6
443.2 K | – | – | – | 1011.6 ± 3.2
453.14 K | – | – | – | 1212.9 ± 3.8
473.46 K | – | – | – | 1720.7 ± 5.4

FC(F)C(F)(F)OCC(F)(F)F [2,2,2-trifluoroethyl 1,1,2,2-tetrafluoroethyl ether]
Conditions | Critical density [kg/m3] | Critical pressure [kPa] | Critical temperature [K] | vapor or sublimation pressure [kPa]
– | 541 ± 2 | 2713 ± 4 | 463.89 ± 0.07 | –
297.29 K | – | – | – | 27.8 ± 1
313.67 K | – | – | – | 55.7 ± 1
322.82 K | – | – | – | 79.9 ± 1
332.69 K | – | – | – | 114.5 ± 1.1
342.88 K | – | – | – | 162 ± 1.1
352.74 K | – | – | – | 221.2 ± 1.2
362.7 K | – | – | – | 296.8 ± 1.3
372.69 K | – | – | – | 391.4 ± 1.5
382.81 K | – | – | – | 510.6 ± 1.8
392.83 K | – | – | – | 651.7 ± 2.1
402.83 K | – | – | – | 821.2 ± 2.6
413.9 K | – | – | – | 1046.2 ± 3.3
422.92 K | – | – | – | 1260.9 ± 3.9
432.91 K | – | – | – | 1536.4 ± 4.8
442.98 K | – | – | – | 1859.3 ± 5.8
452.95 K | – | – | – | 2231 ± 6.9
462.99 K | – | – | – | 2668.5 ± 8.3
463.89 K | – | – | – | 2713.3 ± 8.4
463.94 K | – | – | – | 2715.8 ± 8.4
